Experiments:
guinea-pigs = experiment: Antagonism of substance P induced plasma extravasation in guinea-pigs; assay type: in vivo; conditions: lowest active dose, compound given 1 hour prior to substance P, female guinea-pigs; for LAD conjunctiva / LAD forepaws / LAD nose: 10 minutes after challenge; for LAD trachea / LAD urinary bladder: 30 minutes after challenge
Description: Antagonism of Substance P Induced Plasma Extravasation in Guinea-pigs
Plasma extravasation was induced by injection of substance P (2 mg/kg) in the femoral artery of female guinea-pigs. Evans Blue dye (30 mg/kg) was injected simultaneously. The test compound or solvent was administered 1 hour prior to substance P injection. 10 minutes after challenge, the animals were checked for blue colouring (a direct measure for plasma extravasation) of the nose, the forepaws, and the conjunctiva. 30 minutes after challenge, the animals were sacrificed by CO2 gas inhalation and checked for blue coloring of the trachea and the urinary bladder. […]

Structure (SMILES)	melting point	LAD conjunctiva (guinea-pigs)	LAD forepaws (guinea-pigs)	LAD nose (guinea-pigs)	LAD trachea (guinea-pigs)	LAD urinary bladder (guinea-pigs)
Cc1cc(C)cc(C(=O)N2CC[C@H](N3CCC(C(=O)O)(c4ccccc4)CC3)C[C@@H]2Cc2ccccc2)c1 (racemic)	259.1 °C	–	–	–	–	–
COc1ccccc1C1(O)CCN([C@@H]2CCN(C(=O)c3cc(C)cc(C)c3)[C@@H](Cc3ccccc3)C2)CC1 (racemic) [Compound 17, (±)-trans-1-(3,5-dimethylbenzoyl)-4-[4-hydroxy-4-(2-methoxyphenyl)-1-piperidinyl]-2-(phenyl-methyl)piperidine]	213.1 °C	–	–	–	–	–
Cc1cc(C)cc(C(=O)N2CC[C@H](N3CCC(NC(=O)c4ccccc4N)CC3)C[C@@H]2Cc2ccccc2)c1 (racemic) [Compound 24, (±)-cis-2-amino-N-[1-[1-(3,5-dimethylbenzoyl)-2-(phenylmethyl)-4-piperidinyl]-4-piperidinyl]benzamide]	121.1 °C	–	–	–	–	–
Cc1cc(C)cc(C(=O)N2CC[C@@H](N3CCC(NCCc4ccccc4)CC3)C[C@@H]2Cc2ccccc2)c1 (racemic) [Compound 27, (±)-trans-1-(3,5-dimethylbenzoyl)-4-[4-[(2-phenylethyl)amino]-1-piperidinyl]-2-(phenylmethyl)piperidine]	67.8 °C	–	–	–	–	–
Cc1cc(C)cc(C(=O)N2CC[C@@H](N3CCC(OC(=O)c4cc(Cl)cc(Cl)c4)CC3)C[C@@H]2Cc2ccccc2)c1 (racemic) [Compound 33, (±)-trans-1-[1-(3,5-dimethylbenzoyl)-2-(phenylmethyl)-4-piperidinyl]-4-piperidinyl 3,5-dichloro-benzoate]	83.3 °C	–	–	–	–	–
O=C(c1cc(C(F)(F)F)cc(C(F)(F)F)c1)N1CC[C@@H](N2CCC(n3c(=O)[nH]c4ccccc43)CC2)C[C@@H]1Cc1ccccc1 (racemic) [Compound 43, (±)-trans-1-[3,5-bis(trifluoromethyl)benzoyl]-4-[4-(2,3-dihydro-2-oxo-1H-benzimidazol-1-yl)-1-piperidinyl]-2-(phenylmethyl)piperidine]	156.1 °C	2.5 mg/kg	2.5 mg/kg	2.5 mg/kg	10 mg/kg	10 mg/kg
O=C(c1cc(C(F)(F)F)cc(C(F)(F)F)c1)N1CC[C@@H](N2CCC(C(=O)N3CCCC3)(c3ccccc3)CC2)C[C@@H]1Cc1ccc(C(F)(F)F)cc1 (racemic) [Compound 112, (±)-trans-1-[3,5-bis(trifluoromethyl)benzoyl]-4-[4-phenyl-4-(1-pyrrolidinylcarbonyl)-1-piperidinyl]-2-[[4-(trifluoromethyl)phenyl]methyl]-piperidine]	–	2.5 mg/kg	2.5 mg/kg	2.5 mg/kg	2.5 mg/kg	2.5 mg/kg
